US9981071B2, “Drug delivery medical device” (Micell Technologies, Inc., priority 2008, dated 2018)

Tests used:
[1] = acid urine; cited from earlier work
[2] = system: bladder cancer recurrence; details: 40 mg/20 cc vs 20 mg/20 cc, dehydration, bladder emptying, alkalinization with sodium bicarbonate; cited from earlier work
[3] = parameters: dose or concentration left out as unconfirmed; details: estradiol release, as its 3-acetate ester; cited from earlier work
[4] = Bulk drug in arterial tissue surrounding the implanted stent; assay type: in vivo, Yucatan pig
Procedure: Another sample of the coated stent was prepared for in vivo evaluation in a porcine coronary artery model using the Yucatan pig. Subjects were initially given 650 mg acetylsalicylic acid and 300 mg Plavix. Maintenance doses of 81 mg acetylsalicylic acid and 75 mg Plavix were administered. The target ACT (activated clotting time) for the procedure was about 250 seconds. Stent oversizing in relation to the artery was about 10-20%. The preparation of the sirolimus-coated stent was the same as described in Example 1 and used for the in vitro deployment into tubing, except that the device was sterilized using ETO prior to implantation into the animal.
The bulk concentration of drug was measured in the arterial tissue surrounding the implanted stent at 1, 3, 7, 14, and 28 days after implant, and provided a quantitative measure of the high efficiency of transfer of drug into the therapeutic site using devices and methods of the invention. The amount of drug that was detected in the arterial tissue was as follows: 1 day after implant, ˜6 μg; 3 days after implant, ˜16 μg; 7 days after implant, ˜30 μg; 14 days after implant, ˜30 μg; 28 days after implant, ˜13 μg. Peak tissue concentration of sirolimus of ˜30 μg at 14 days after implant was representative of approximately ⅙ of the total drug that had been loaded on the stent. Note that some drug likely metabolized or diffused out of the arterial tissue into other areas of the body.

Compound: CO[C@@]12[C@H](COC(N)=O)C3=C(C(=O)C(C)=C(N)C3=O)N1C[C@@H]1N[C@@H]12 [Mitomycin C]
- stability in urine [1]: inactivated by acid urine
- recurrence with optimized schedule [2]: nearly cut in half

Compound: C[C@]12CC[C@@H]3c4ccc(O)cc4CC[C@H]3[C@@H]1CC[C@@H]2O [estradiol]
- circulating plasma concentration maintained [3]: 300 pmol/L

Compound: CO[C@H]1C[C@@H]2CC[C@@H](C)[C@@](O)(O2)C(=O)C(=O)N2CCCC[C@H]2C(=O)O[C@H]([C@H](C)C[C@@H]2CC[C@@H](O)[C@H](OC)C2)CC(=O)[C@H](C)/C=C(\C)[C@@H](O)[C@@H](OC)C(=O)[C@H](C)C[C@H](C)/C=C/C=C/C=C/1C [sirolimus]
- amount of drug detected in the arterial tissue ([4]; 1 day after implant): ~6 µg
- amount of drug detected in the arterial tissue ([4]; 3 days after implant): ~16 µg
- amount of drug detected in the arterial tissue ([4]; 7 days after implant): ~30 µg
- amount of drug detected in the arterial tissue ([4]; 14 days after implant): ~30 µg
- peak tissue level as fraction of the total drug loaded on the stent ([4]; 14 days after implant): approximately ⅙
- amount of drug detected in the arterial tissue ([4]; 28 days after implant): ~13 µg
